Read-outs that look alike come from different tables or passages of the source.
Tests used:
[1] = biological target: T1, human TLR7 (Homo sapiens, UniProt Q9NYK1); test: Human TLR7 agonist activity assay (HEK-Blue TLR7 SEAP reporter); format: cell-based; details: HEK-Blue TLR7 cells, 18 h treatment, average where assay was performed multiple times, read-out: hTLR7 Agonism EC50
T1 construct: host or cells: HEK-Blue TLR7 cells (engineered human embryonic kidney cells)
T1 sequence (Q9NYK1 27-1049): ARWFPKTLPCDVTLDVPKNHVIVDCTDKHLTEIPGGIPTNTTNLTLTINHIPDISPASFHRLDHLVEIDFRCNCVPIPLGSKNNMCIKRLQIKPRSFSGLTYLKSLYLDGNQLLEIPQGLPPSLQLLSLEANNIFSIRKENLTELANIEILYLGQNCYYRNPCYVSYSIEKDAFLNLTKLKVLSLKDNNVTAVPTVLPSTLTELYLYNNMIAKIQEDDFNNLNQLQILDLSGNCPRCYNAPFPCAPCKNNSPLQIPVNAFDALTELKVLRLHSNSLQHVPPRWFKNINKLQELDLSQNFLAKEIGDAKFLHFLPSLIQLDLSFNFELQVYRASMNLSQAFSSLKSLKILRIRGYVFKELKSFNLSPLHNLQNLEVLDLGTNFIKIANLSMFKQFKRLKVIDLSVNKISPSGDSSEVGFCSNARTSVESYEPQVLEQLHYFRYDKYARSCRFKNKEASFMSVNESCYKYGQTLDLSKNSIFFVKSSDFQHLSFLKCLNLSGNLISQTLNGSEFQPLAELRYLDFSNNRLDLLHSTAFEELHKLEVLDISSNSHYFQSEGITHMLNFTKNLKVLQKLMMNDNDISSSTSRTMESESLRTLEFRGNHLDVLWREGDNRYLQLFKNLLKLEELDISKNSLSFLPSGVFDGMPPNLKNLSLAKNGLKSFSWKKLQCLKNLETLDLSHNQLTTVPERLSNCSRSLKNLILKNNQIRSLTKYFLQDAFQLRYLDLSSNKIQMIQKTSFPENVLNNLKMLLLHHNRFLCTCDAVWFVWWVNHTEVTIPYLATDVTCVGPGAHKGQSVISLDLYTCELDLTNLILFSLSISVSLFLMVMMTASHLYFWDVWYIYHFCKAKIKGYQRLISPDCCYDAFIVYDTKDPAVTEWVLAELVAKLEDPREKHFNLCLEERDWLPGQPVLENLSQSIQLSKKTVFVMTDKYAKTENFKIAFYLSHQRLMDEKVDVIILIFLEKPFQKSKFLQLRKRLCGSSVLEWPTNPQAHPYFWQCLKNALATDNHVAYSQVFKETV
Method: This procedure describes a method for assaying human TLR7 (hTLR7) agonist activity of the compounds disclosed in this specification.
HEK-Blue™ TLR7 cells were added to each well of a 384-well tissue-culture plate (15,000 cells per well) and incubated 16-18 h at 37° C., 5% CO2. Compounds (100 nl) were dispensed into wells containing the HEK-Blue™ TLR cells and the treated cells were incubated at 37° C., 5% CO2. After 18 h treatment ten microliters of freshly-prepared Quanti-Blue™ reagent (Invivogen) was added to each well, incubated for 30 min (37° C., 5% CO2) and SEAP levels measured using an Envision plate reader (OD=620 nm).

[2] = system: CD69; test: Induction of CD69 in human whole blood; format: cell-based
Method: The induction of Type I interferon (IFN) MX-1 genes and the B-cell activation marker CD69 are downstream events that occur upon activation of the TLR7 pathway. The following is a human whole blood assay that measures their induction in response to a TLR7 agonist.
Heparinized human whole blood was harvested from human subjects and treated with test TLR7 agonist compounds at 1 mM. The blood was diluted with RPMI 1640 media and Echo was used to predot 10 nL per well giving a final concentration of 1 uM (10 nL in 10 uL of blood). After mixing on a shaker for 30 sec, the plates were covered and placed in a 37° C. chamber for o/n=17 hrs. Fixing/lysis buffer was prepared (5×->1× in H2O, warm at 37° C.; Cat #BD 558049) and kept the perm buffer (on ice) for later use.
For surface markers staining (CD69): prepared surface Abs: 0.045 ul hCD14-FITC (ThermoFisher Cat #MHCD1401)+0.6 ul hCD19-ef450 (ThermoFisher Cat #48-0198-42)+1.5 ul hCD69-PE (cat #BD555531)+0.855 ul FACS buffer. Added 3 ul/well, spin1000 rpm for 1 min and mixed on shaker for 30 sec, put on ice for 30 mins. Stop stimulation after 30 min with 70 uL of prewarmed 1× fix/lysis buffer and use Feliex mate to resuspend (15 times, change tips for each plate) and incubate at 37 C for 10 min.
Centrifuge at 2000 rpm for 5 min aspirate with HCS plate washer, mix on shaker for 30 sec and then wash with 70 uL in dPBS and pelleted 2×s (2000 rpm for 5 min) and 50 ul wash in FACS buffer pelleted 1×s (2000 rpm for 5 min). Mix on shaker for 30 sec. For Intracellular markers staining (MX-1): Add 50 ul of BD Perm buffer III and mix on shaker for 30 sec. Incubate on ice for 30 minutes (in the dark). Wash with 50 uL of FACS buffer 2× (spin @2300 rpm×5 min after perm) followed by mixing on shaker for 30 sec. Resuspended in 20 ul of FACS buffer containing MX1 antibody ( )(4812)-Alexa 647: Novus Biologicals #NBP2-43704AF647) 20 ul FACS bf+0.8 ul hlgG+0.04 ul MX-1. Spin 1000 rpm for 1 min, mix on shaker for 30se and the samples were incubated at RT in the dark for 45 minutes followed by washing 2×FACS buffer (spin @2300 rpm×5 min after perm). Resuspend 20 ul (35 uL total per well) of FACS buffer and cover with foil and place in 4° C. to read the following day. Plates were read on iQuePlus. The results were loaded into toolset and […] curves are generated in curve master. The y-axis 100% is set to 1 uM of resiquimod.

[3] = human whole blood, 17 hrs, CD69 surface staining, 100% set to 1 uM of resiquimod, average where assay was performed multiple times, read-out: hWB CD69 EC50
[4] = Homo sapiens, 17 h, read-out: hWB CD69 EC50 (nM)

Row | Compound | EC50 [1] [nM] | EC50 [2, 3] [nM] | EC50 [2, 4] [nM]
1 | CCC[C@@H](CCO)Nc1nc(N)nc2cnn(Cc3ccc(C(=O)NCC4CCNCC4)cc3OC)c12 [Compound 101, 4-[(5-amino-7-{[(3S)-1-hydroxyhexan-3-yl]amino}-1H-pyrazolo[4,3-d]pyrimidin-1-yl)methyl]-3-methoxy-N-[(piperidin-4-yl)methyl]benzamide] | 1300 | ≥ 1000 | –
2 | CCCCNc1nc(N)nc2cnn(Cc3ccc(C(=O)NC4CCC4)cc3OC)c12 [Compound 103, 4-{[5-amino-7-(butylamino)-1H-pyrazolo[4,3-d]pyrimidin-1-yl]methyl}-N-cyclobutyl-3-methoxybenzamide] | 1660 | ≥ 1000 | –
3 | CCCCNc1nc(N)nc2cnn(Cc3ccc(C(=O)N4CCNCC4)cc3OC)c12 [Compound 104, N7-butyl-1-{[2-methoxy-4-(piperazine-1-carbonyl)phenyl]methyl}-1H-pyrazolo[4,3-d]pyrimidine-5,7-diamine] | 40.7 | 120 | –
4 | CCCCNc1nc(N)nc2cnn(Cc3ccc(C(=O)N4CCN(CCO)CC4)cc3OC)c12 [Compound 105, 2-[4-(4-{[5-amino-7-(butylamino)-1H-pyrazolo[4,3-d]pyrimidin-1-yl]methyl}-3-methoxybenzoyl)piperazin-1-yl]ethan-1-ol] | 32.6 | 32.1 | –
5 | CCCCNc1nc(N)nc2cnn(Cc3ccc(C(=O)N4CCN(CC(F)(F)F)CC4)cc3OC)c12 [Compound 108, N7-butyl-1-({2-methoxy-4-[4-(2,2,2-trifluoroethyl)piperazine-1-carbonyl]phenyl}methyl)-1H-pyrazolo[4,3-d]pyrimidine-5,7-diamine] | 602 | ≥ 1000 | –
6 | CCCCNc1nc(N)nc2cnn(Cc3ccc(C(=O)N4CCCN(C)CC4)cc3OC)c12 [Compound 110, N7-butyl-1-{[2-methoxy-4-(4-methyl-1,4-diazepane-1-carbonyl)phenyl]methyl}-1H-pyrazolo[4,3-d]pyrimidine-5,7-diamine] | 16.3 | 3.9 | –
7 | CCCCNc1nc(N)nc2cnn(Cc3ccc(C(=O)NCCN(C)C)cc3OC)c12 [Compound 111, 4-{[5-amino-7-(butylamino)-1H-pyrazolo[4,3-d]pyrimidin-1-yl]methyl}-N-[2-(dimethylamino)ethyl]-3-methoxybenzamide] | 78 | 6.8 | –
8 | CCCCNc1nc(N)nc2cnn(Cc3ccc(C(=O)NC4CCN(C)CC4)cc3OC)c12 [Compound 114, 4-{[5-amino-7-(butylamino)-1H-pyrazolo[4,3-d]pyrimidin-1-yl]methyl}-3-methoxy-N-(1-methylpiperidin-4-yl)benzamide] | 68.9 | – | 24.4
9 | CCCCNc1nc(N)nc2cnn(Cc3ccc(C(=O)N4CCC(CCO)CC4)cc3OC)c12 [Compound 116, 2-[1-(4-{[5-amino-7-(butylamino)-1H-pyrazolo[4,3-d]pyrimidin-1-yl]methyl}-3-methoxybenzoyl)piperidin-4-yl]ethan-1-ol] | 41.6 | 42.6 | –
10 | CCCCNc1nc(N)nc2c(C)nn(Cc3ccc(C(=O)NC4CCN(C)CC4)cc3OC)c12 [Compound 117, 4-{[5-amino-7-(butylamino)-3-methyl-1H-pyrazolo[4,3-d]pyrimidin-1-yl]methyl}-3-methoxy-N-(1-methylpiperidin-4-yl)benzamide] | 467 | – | 56.9
11 | CCCCNc1nc(N)nc2c(C)nn(Cc3ccc(C(=O)N4CCN(CCO)CC4)cc3OC)c12 [Compound 118, 2-[4-(4-{[5-amino-7-(butylamino)-3-methyl-1H-pyrazolo[4,3-d]pyrimidin-1-yl]methyl}-3-methoxybenzoyl)piperazin-1-yl]ethan-1-ol] | 405 | 63.3 | –

Further lines, with some results ahead:

Row | EC50 [1] [nM] | EC50 [2, 3] [nM] | Compound | EC50 [2, 4] [nM]
12 | – | ≥ 1000 | CCCCNc1nc(N)nc2cnn(Cc3ccc(C(=O)NC4CCOCC4)cc3OC)c12 [Compound 102, 4-{[5-amino-7-(butylamino)-1H-pyrazolo[4,3-d]pyrimidin-1-yl]methyl}-3-methoxy-N-(oxan-4-yl)benzamide] | –
13 | 20.8 | 4.5 | CCCCNc1nc(N)nc2cnn(Cc3ccc(C(=O)N4CCN(C)CC4)cc3OC)c12 [Compound 106, N7-butyl-1-{[2-methoxy-4-(4-methylpiperazine-1-carbonyl)phenyl]methyl}-1H-pyrazolo[4,3-d]pyrimidine-5,7-diamine] | –
14 | 264 | 93.4 | CCCCNc1nc(N)nc2cnn(Cc3ccc(C(=O)N4CCN(C(C)=O)CC4)cc3OC)c12 [Compound 107, 1-[4-(4-{[5-amino-7-(butylamino)-1H-pyrazolo[4,3-d]pyrimidin-1-yl]methyl}-3-methoxybenzoyl)piperazin-1-yl]ethan-1-one] | –
15 | 29.7 | 49.6 | CCCCNc1nc(N)nc2cnn(Cc3ccc(C(=O)N4CCC(N(C)C)CC4)cc3OC)c12 [Compound 109, N7-butyl-1-({4-[4-(dimethylamino)piperidine-1-carbonyl]-2-methoxyphenyl}methyl)-1H-pyrazolo[4,3-d]pyrimidine-5,7-diamine] | –
16 | 154 | 81.9 | CCCCNc1nc(N)nc2cnn(Cc3ccc(C(=O)N4CCC(CO)CC4)cc3OC)c12 [Compound 112, [1-(4-{[5-amino-7-(butylamino)-1H-pyrazolo[4,3-d]pyrimidin-1-yl]methyl}-3-methoxybenzoyl)piperidin-4-yl]methanol] | –
17 | 111 | 106 | CCCCNc1nc(N)nc2cnn(Cc3ccc(C(=O)N4CCC(O)CC4)cc3OC)c12 [Compound 113, 1-(4-{[5-amino-7-(butylamino)-1H-pyrazolo[4,3-d]pyrimidin-1-yl]methyl}-3-methoxybenzoyl)piperidin-4-ol] | –
18 | 384 | 224 | CCCCNc1nc(N)nc2cnn(Cc3ccc(C(=O)N4CCNC(=O)C4)cc3OC)c12 [Compound 115, 4-(4-{[5-amino-7-(butylamino)-1H-pyrazolo[4,3-d]pyrimidin-1-yl]methyl}-3-methoxybenzoyl)piperazin-2-one] | –
19 | 968 | 332 | CCCCNc1nc(N)nc2c(C)nn(Cc3ccc(C(=O)N4CCNC(=O)C4)cc3OC)c12 [Compound 119, 4-(4-{[5-amino-7-(butylamino)-3-methyl-1H-pyrazolo[4,3-d]pyrimidin-1-yl]methyl}-3-methoxybenzoyl)piperazin-2-one] | –
20 | 1200 | 94.6 | CCCCNc1nc(N)nc2cnn(Cc3ccc(C(=O)N4CCN(CCO)CC4)cc3OC(F)F)c12 [Compound 120, 2-[4-(4-{[5-amino-7-(butylamino)-1H-pyrazolo[4,3-d]pyrimidin-1-yl]methyl}-3-(difluoromethoxy)benzoyl)piperazin-1-yl]ethan-1-ol] | –

From patent US20230140430A1, “1H-PYRAZOLO[4,3-d]PYRIMIDINE COMPOUNDS AS TOLL-LIKE RECEPTOR 7 (TLR7) AGONISTS” (BRISTOL-MYERS SQUIBB COMPANY, priority 2020, published 2023)
